Measured values taken from patent US11180484B2, “Pyrazole derivatives as plasma kallikrein inhibitors” (KALVISTA PHARMACEUTICALS LIMITED, priority 2016, dated 2021).

How the values were obtained:
Assay type in all cases: biochemical
[1] = molecular target: Human Factor XIIa (Homo sapiens (Human), UniProt P00748); experiment: Factor XIIa inhibitory activity in vitro; settings: 25° C., substrate H-DPro-Phe-Arg-AFC; read-out: IC50 (human FXIIa)
Procedure: (§1) Human Factor XIIa (Enzyme Research Laboratories) was incubated at 25° C. with the fluorogenic substrate H-DPro-Phe-Arg-AFC and various concentrations of the test compound. Residual enzyme activity (initial rate of reaction) was determined by measuring the change in […] at 410 nm and the IC50 value for the test compound was determined.

[2] = molecular target: Human FXIa (Homo sapiens (Human), UniProt P03951); experiment: Determination of the % inhibition / IC50 for FXIa; settings: for IC50: 25° C., substrate Z-Gly-Pro-Arg-AFC
Procedure: FXIa inhibitory activity in vitro was determined using standard published methods (see e.g. Johansen et al., Int. J. Tiss. Reac. 1986, 8, 185; Shori et al., Biochem. Pharmacol., 1992, 43, 1209; Sturzebecher et al., Biol. Chem. Hoppe-Seyler, 1992, 373, 1025). […]

[3] = molecular target: Human plasma kallikrein (Homo sapiens (Human), UniProt P03952); experiment: Determination of the IC50 for plasma kallikrein; settings: 25° C., substrate H-DPro-Phe-Arg-AFC; read-out: IC50 (human PKal)
Procedure: as §1, with “plasma kallikrein (Protogen)” for “Factor XIIa (Enzyme Research Laboratories)”

[4] = molecular target: Human KLK1 (Homo sapiens (Human), UniProt P06870); experiment: Determination of the IC50 for KLK1; settings: 25° C., substrate H-DVal-Leu-Arg-AFC
Procedure: as §1, with “KLK1 (Callbiochem)” for “Factor XIIa (Enzyme Research Laboratories)”, “H-DVal-Leu-Arg-AFC” for “H-DPro-Phe-Arg-AFC”

Sequence of Human FXIa (P03951 388-625): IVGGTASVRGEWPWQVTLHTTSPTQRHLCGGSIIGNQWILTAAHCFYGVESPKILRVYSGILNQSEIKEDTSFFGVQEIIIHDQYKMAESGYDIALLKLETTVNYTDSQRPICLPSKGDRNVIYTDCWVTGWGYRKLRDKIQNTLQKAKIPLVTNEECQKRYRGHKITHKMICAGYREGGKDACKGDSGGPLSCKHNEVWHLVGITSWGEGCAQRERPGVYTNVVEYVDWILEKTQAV
Sequence of Human FXIa (P03951 19-387): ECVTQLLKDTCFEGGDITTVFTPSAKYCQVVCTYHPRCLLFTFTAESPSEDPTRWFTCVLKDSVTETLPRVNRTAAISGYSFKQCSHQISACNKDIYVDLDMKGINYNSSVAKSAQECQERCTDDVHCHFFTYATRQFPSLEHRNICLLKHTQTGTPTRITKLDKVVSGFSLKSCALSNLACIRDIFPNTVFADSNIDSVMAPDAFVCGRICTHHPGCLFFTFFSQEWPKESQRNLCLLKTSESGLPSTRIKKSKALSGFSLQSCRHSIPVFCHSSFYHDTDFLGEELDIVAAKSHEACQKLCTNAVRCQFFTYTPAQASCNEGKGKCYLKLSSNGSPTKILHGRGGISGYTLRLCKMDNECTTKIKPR
Sequence of Human KLK1 (P06870 25-262): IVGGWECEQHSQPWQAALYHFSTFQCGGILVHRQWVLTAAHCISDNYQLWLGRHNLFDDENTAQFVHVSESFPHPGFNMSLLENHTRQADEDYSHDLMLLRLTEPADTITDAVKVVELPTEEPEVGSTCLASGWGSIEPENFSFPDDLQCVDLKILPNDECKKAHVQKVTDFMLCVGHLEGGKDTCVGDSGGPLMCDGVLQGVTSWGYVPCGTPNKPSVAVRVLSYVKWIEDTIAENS
Sequence of Human Factor XIIa (P00748 373-615): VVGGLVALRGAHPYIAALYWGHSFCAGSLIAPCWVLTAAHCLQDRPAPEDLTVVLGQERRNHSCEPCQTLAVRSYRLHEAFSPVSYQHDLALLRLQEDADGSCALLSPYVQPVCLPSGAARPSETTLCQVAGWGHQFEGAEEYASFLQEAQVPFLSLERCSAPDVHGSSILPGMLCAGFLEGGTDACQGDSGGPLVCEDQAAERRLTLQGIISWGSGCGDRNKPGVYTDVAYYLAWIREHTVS
Sequence of Human plasma kallikrein (P03952 391-638): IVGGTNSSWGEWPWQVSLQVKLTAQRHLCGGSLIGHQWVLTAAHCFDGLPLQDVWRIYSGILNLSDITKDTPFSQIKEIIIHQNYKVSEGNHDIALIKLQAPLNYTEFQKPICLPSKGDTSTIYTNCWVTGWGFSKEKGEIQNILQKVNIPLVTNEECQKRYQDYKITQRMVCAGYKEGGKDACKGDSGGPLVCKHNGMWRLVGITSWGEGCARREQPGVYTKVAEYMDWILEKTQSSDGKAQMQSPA
Sequence of Human plasma kallikrein (P03952 20-390): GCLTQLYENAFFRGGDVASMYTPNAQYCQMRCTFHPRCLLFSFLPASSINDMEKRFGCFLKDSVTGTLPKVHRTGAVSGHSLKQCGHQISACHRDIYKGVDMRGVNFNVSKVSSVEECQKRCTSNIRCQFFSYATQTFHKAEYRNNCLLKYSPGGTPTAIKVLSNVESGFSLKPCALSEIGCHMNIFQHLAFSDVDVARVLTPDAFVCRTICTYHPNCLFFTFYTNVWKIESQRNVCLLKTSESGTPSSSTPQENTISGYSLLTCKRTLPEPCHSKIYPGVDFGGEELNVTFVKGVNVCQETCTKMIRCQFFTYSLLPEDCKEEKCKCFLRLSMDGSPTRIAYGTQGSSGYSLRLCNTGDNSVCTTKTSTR

SMILES | IC50 [1] [µM] | IC50 [2] [µM] | IC50 [3] [µM] | IC50 [4] [µM] | inhibition at 40 µM ([2]; 40 μM test compound, read-out: % Inhibition @ 40 μM (human FXIa)) [%]
COCc1nn(Cc2ccc(Cn3ccccc3=O)cc2)cc1C(=O)NCc1nccc(C)c1Cl [Example 29, N-[(3-chloro-4-methylpyridin-2-yl)methyl]-3-(methoxymethyl)-1-({4-[(2-oxopyridin-1-yl)methyl]phenyl}methyl)pyrazole-4-carboxamide] | > 40 | > 40 | 0.217 | > 40 | –
COCc1nn(Cc2ccc(Cn3ccccc3=O)cc2)cc1C(=O)NCc1cc(OC)cc(OC)c1 [Reference Example A, N-(3,5-Dimethoxybenzyl)-3-(methoxymethyl)-1-(4-((2-oxopyridin-1(2H)-yl)methyl)benzyl)-1H-pyrazole-4-carboxamide, reference compound] | – | > 40 | – | > 10 | –
COCc1nn(Cc2ccc(Cn3ccccc3=O)cc2)cc1C(=O)NCc1c(F)ccc(OC)c1C(F)F [Reference Example F, 3-Methoxymethyl-1-[4-(2-oxo-2H-pyridin-1-ylmethyl)-benzyl]-1H-pyrazole-4-carboxylic acid 2-difluoromethyl-6-fluoro-3-methoxy-benzylamide, reference compound] | – | > 40 | – | – | –
COCc1nn(Cc2ccc(Cn3ccccc3=O)cc2)cc1C(=O)NCc1cccc(OC)c1C#N [Example 38, N-[(2-cyano-3-methoxyphenyl)methyl]-3-(methoxymethyl)-1-({4-[(2-oxopyridin-1-yl)methyl]phenyl}methyl)pyrazole-4-carboxamide] | > 4 | > 40 | 0.301 | > 4 | –
COCc1nn(Cc2ccc(Cn3ccccc3=O)cc2)cc1C(=O)NCc1cc(OC)c(C)cn1 [Example 20, N-[(4-methoxy-5-methylpyridin-2-yl)methyl]-3-(methoxymethyl)-1-({4-[(2-oxopyridin-1-yl)methyl]phenyl}methyl)pyrazole-4-carboxamide] | > 40 | > 40 | 3.22 | > 40 | 0
COCc1nn(Cc2ccc(Cn3ccccc3=O)cc2)cc1C(=O)NCc1nccc(OC)n1 [Example 10, 3-(methoxymethyl)-N-[(4-methoxypyrimidin-2-yl)methyl]-1-({4-[(2-oxopyridin-1-yl)methyl]phenyl}methyl)pyrazole-4-carboxamide] | > 40 | > 40 | 2.45 | > 40 | –
COCc1nn(Cc2ccc(Cn3ccccc3=O)cc2)cc1C(=O)NCc1ncc(Cl)cc1F [Example 17, N-[(5-chloro-3-fluoropyridin-2-yl)methyl]-3-(methoxymethyl)-1-({4-[(2-oxopyridin-1-yl)methyl]phenyl}methyl)pyrazole-4-carboxamide] | > 40 | > 40 | 0.143 | > 40 | –
COCc1nn(Cc2ccc(Cn3ccccc3=O)cc2)cc1C(=O)NCc1cc(OC)ncc1C#N [Example 8, N-[(5-cyano-2-methoxypyridin-4-yl)methyl]-3-(methoxymethyl)-1-({4-[(2-oxopyridin-1-yl)methyl]phenyl}methyl)pyrazole-4-carboxamide] | > 4 | > 40 | 0.162 | > 4 | –
COCc1nn(Cc2ccc(Cn3ccccc3=O)cc2)cc1C(=O)NCc1cc(OC)n(C)n1 [Example 31, N-[(5-methoxy-1-methylpyrazol-3-yl)methyl]-3-(methoxymethyl)-1-({4-[(2-oxopyridin-1-yl)methyl]phenyl}methyl)pyrazole-4-carboxamide] | > 40 | > 40 | 0.462 | > 40 | –
COCc1nn(Cc2ccc(Cn3ccccc3=O)cc2)cc1C(=O)NCc1nn(C)cc1Cl [Example 34, N-[(4-chloro-1-methylpyrazol-3-yl)methyl]-3-(methoxymethyl)-1-({4-[(2-oxopyridin-1-yl)methyl]phenyl}methyl)pyrazole-4-carboxamide] | – | > 40 | 0.709 | > 40 | –
COCc1nn(Cc2ccc(Cn3ccccc3=O)cc2)cc1C(=O)NCc1c(C#N)ccc(OC)c1F [Reference Example E, 3-Methoxymethyl-1-[4-(2-oxo-2H-pyridin-1-ylmethyl)-benzyl]-1H-pyrazole-4-carboxylic acid 6-cyano-2-fluoro-3-methoxy-benzylamide, reference compound] | > 40 | > 40 | – | – | –
COCc1nn(Cc2ccc(Cn3ccccc3=O)cc2)cc1C(=O)NCc1cc(OC)ncn1 [Example 4, 3-(methoxymethyl)-N-[(6-methoxypyrimidin-4-yl)methyl]-1-({4-[(2-oxopyridin-1-yl)methyl]phenyl}methyl)pyrazole-4-carboxamide] | > 4 | > 40 | 2.3 | > 4 | –
COCc1nn(Cc2ccc(Cn3ccccc3=O)cc2)cc1C(=O)NCc1nccc(OC)c1F [Reference Example D, 3-Methoxymethyl-1-[4-(2-oxo-2H-pyridin-1-ylmethyl)-benzyl]-1H-pyrazole-4-carboxylic acid (3-fluoro-4-methoxy-pyridin-2-ylmethyl)-amide, reference compound] | > 40 | > 40 | – | > 40 | –
COCc1nn(Cc2ccc(Cn3ccccc3=O)cc2)cc1C(=O)NCc1ncc(C)c(OC)c1C [Example 11, N-[(4-methoxy-3,5-dimethylpyridin-2-yl)methyl]-3-(methoxymethyl)-1-({4-[(2-oxopyridin-1-yl)methyl]phenyl}methyl)pyrazole-4-carboxamide] | > 40 | > 40 | 0.035 | > 40 | –
COCc1nn(Cc2ccc(Cn3ccccc3=O)cc2)cc1C(=O)NCc1nc(C)ccc1F [Example 27, N-[(3-fluoro-6-methylpyridin-2-yl)methyl]-3-(methoxymethyl)-1-({4-[(2-oxopyridin-1-yl)methyl]phenyl}methyl)pyrazole-4-carboxamide] | > 40 | > 40 | 0.775 | > 40 | –
COc1cccc(CNC(=O)c2cn(Cc3ccc(N4CCCC4)nc3)nc2C(F)(F)F)c1F [Reference Example G, 1-(6-Pyrrolidin-1-yl-pyridin-3-ylmethyl)-3-trifluoromethyl-1H-pyrazole-4-carboxylic acid 2-fluoro-3-methoxy-benzylamide, reference compound] | – | > 40 | – | > 10 | –
COCc1nn(Cc2ccc(Cn3ccccc3=O)cc2)cc1C(=O)NCc1cc(OC)ccc1C [Example 41, N-[(5-methoxy-2-methylphenyl)methyl]-3-(methoxymethyl)-1-({4-[(2-oxopyridin-1-yl)methyl]phenyl}methyl)pyrazole-4-carboxamide] | > 4 | > 40 | 0.149 | > 4 | –
COCc1nn(Cc2ccc(Cn3ccccc3=O)cc2)cc1C(=O)NCc1ncc(F)cc1F [Example 26, N-[(3,5-difluoropyridin-2-yl)methyl]-3-(methoxymethyl)-1-({4-[(2-oxopyridin-1-yl)methyl]phenyl}methyl)pyrazole-4-carboxamide] | > 40 | > 40 | 1.76 | > 40 | –
COCc1nn(Cc2cnc3cc(Cl)ccc3c2)cc1C(=O)NCc1cccc(OC)c1F [Reference Example C, 1-(7-Chloro-quinolin-3-ylmethyl)-3-methoxymethyl-1H-pyrazole-4-carboxylic acid 2-fluoro-3-methoxy-benzylamide, reference compound] | – | > 40 | – | > 10 | –
COCc1nn(Cc2ccc(CN3CCCCC3=O)cc2)cc1C(=O)NCc1c(C#N)ccc(OC)c1F [Example 57, N-[(6-cyano-2-fluoro-3-methoxyphenyl)methyl]-3-(methoxymethyl)-1-({4-[(2-oxopiperidin-1-yl)methyl]phenyl}methyl)pyrazole-4-carboxamide] | > 40 | > 40 | 0.0279 | > 40 | –
COCc1nn(Cc2ccc(Cn3ccccc3=O)cc2)cc1C(=O)NCc1ncc(Cl)cc1C#N [Example 16, N-[(5-chloro-3-cyanopyridin-2-yl)methyl]-3-(methoxymethyl)-1-({4-[(2-oxopyridin-1-yl)methyl]phenyl}methyl)pyrazole-4-carboxamide] | > 40 | > 40 | 0.187 | > 40 | –
COCc1nn(Cc2ccc(Cn3ccccc3=O)cc2)cc1C(=O)NCc1nccc(C)c1F [Example 28, N-[(3-fluoro-4-methylpyridin-2-yl)methyl]-3-(methoxymethyl)-1-({4-[(2-oxopyridin-1-yl)methyl]phenyl}methyl)pyrazole-4-carboxamide] | > 40 | > 40 | 0.163 | > 40 | –
